Source: patent publication US20240139216A1, “STABLE ORAL CANNABIDIOL COMPOSITIONS” (CARDIOL THERAPEUTICS INC., priority 2020, published 2024)

What was measured:
Solubility of CBD in BCP = type: physicochemical; settings: in 1 mL of BCP
Method: For example, at least 300 mg of CBD can be dissolved in 1 mL of BCP. The enhanced stability of the CBD provides a composition with an acceptable shelf life and which can provide consistency in dosing and enhanced safety.

CB2 receptor = CB2 receptor (Homo sapiens, UniProt P34972); settings: Proc Natl Acad Sci USA 2008; 105(26):9099-104; cited from earlier work
Chain of CB2 receptor (P34972 whole entry): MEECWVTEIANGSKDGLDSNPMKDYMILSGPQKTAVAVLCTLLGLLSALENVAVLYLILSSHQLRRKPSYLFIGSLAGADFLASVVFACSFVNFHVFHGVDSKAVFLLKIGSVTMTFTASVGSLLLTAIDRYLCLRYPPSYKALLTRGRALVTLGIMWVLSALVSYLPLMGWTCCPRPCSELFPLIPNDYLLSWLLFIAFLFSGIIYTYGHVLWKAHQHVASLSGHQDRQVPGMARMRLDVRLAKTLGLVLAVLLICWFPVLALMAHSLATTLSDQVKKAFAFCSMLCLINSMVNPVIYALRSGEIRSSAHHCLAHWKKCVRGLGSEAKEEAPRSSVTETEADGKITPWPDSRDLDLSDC

| Structure (SMILES) | amount of CBD that can be dissolved in BCP (Solubility of CBD in BCP) | binding to the CB2 receptor (CB2 receptor) | functional activity at the CB2 receptor (CB2 receptor) |
| --- | --- | --- | --- |
| C=C(C)[C@@H]1CCC(C)=C[C@H]1c1c(O)cc(CCCCC)cc1O [CBD, cannabidiol] | at least 300 mg | – | – |
| C=C1CC/C=C(\C)CC[C@@H]2[C@@H]1CC2(C)C (relative stereo) [β-caryophyllene, trans-(1R,9S)-8-Methylene-4,11,11-trimethylbicyclo[7.2.0]undec-4-ene] | – | selectively binds to the CB2 receptor | functional CB2 agonist |
